Read-outs that look alike come from different tables or passages of the source.
What was measured:
[1] = target: T1, PBP5 (Pseudomonas aeruginosa, UniProt G3XD74); test: Bocillin-FL competition in whole cells; assay type: cell-based; conditions: intact PAO1 cells, 30 min incubation, covalent
T1 construct: gene dacC; native full-length protein in intact P. aeruginosa PAO1 cells, Bocillin-FL labelled

[2] = target: T2, PBP4 (Pseudomonas aeruginosa, UniProt Q9HZG1); test: Bocillin-FL competition in whole cells; assay type: cell-based; conditions: intact PAO1 cells, 30 min incubation, covalent
T2 construct: gene PA3047; native full-length protein in intact P. aeruginosa PAO1 cells, Bocillin-FL labelled
Text: Bocillin-FL competition in whole cells on PBP4

[3] = target: T3, PBP2 (Pseudomonas aeruginosa, UniProt G3XCV7); test: Bocillin-FL competition in whole cells; assay type: cell-based; conditions: intact PAO1 cells, 30 min incubation, covalent
T3 construct: gene pbpA; native full-length protein in intact P. aeruginosa PAO1 cells, Bocillin-FL labelled
T3 sequence (G3XCV7 1-646): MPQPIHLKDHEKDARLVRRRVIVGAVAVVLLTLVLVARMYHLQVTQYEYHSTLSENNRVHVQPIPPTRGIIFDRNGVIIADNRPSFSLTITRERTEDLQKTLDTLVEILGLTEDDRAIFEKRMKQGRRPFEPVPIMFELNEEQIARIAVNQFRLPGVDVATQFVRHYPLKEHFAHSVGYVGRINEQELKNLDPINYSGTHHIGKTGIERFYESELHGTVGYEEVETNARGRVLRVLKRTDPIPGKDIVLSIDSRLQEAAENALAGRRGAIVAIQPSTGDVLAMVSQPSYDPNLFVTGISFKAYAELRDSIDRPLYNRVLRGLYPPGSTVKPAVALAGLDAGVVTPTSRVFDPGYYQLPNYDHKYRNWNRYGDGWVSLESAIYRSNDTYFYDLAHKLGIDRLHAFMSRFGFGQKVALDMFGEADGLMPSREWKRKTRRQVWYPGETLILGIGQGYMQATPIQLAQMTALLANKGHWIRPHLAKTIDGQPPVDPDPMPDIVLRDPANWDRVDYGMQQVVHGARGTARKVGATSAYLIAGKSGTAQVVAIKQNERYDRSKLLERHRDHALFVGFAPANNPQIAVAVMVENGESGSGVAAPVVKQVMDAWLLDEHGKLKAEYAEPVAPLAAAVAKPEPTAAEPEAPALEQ
Text: Bocillin-FL competition in whole cells on PBP2

[4] = target: T4, PBP3 (Pseudomonas aeruginosa, UniProt G3XD46); test: biochemical; parameters: gene ftsI; native protein in lysed PAO1; species or system Pseudomonas aeruginosa PAO1; Bocillin FL labelling competition of PBPs in lysed P. aeruginosa PAO1
Text: Abstract Objectives The main objective of the present work was to dissect the interplay between penicillin-binding protein (PBP) occupancy, ampC transcriptional dynamics, and β-lactamase activity in Pseudomonas aeruginosa. Methods Using wild-type PAO1 and isogenic LMW-PBP knockout mutants (PAOΔdacB, PAOΔdacBdacC, and PAOΔdacBdacCpbpG), we assessed ampC induction following exposure to 18 β-lactams and β-lactamase inhibitors. PBP binding (IC50) was quantified via Bocillin-FL labelling. AmpC mRNA levels were measured by qRT-PCR, and β-lactamase activity was determined in crude extracts, periplasmic and extracellular fractions using nitrocefin and cefalotin substrates. […] Binding to PBP4 is a recognized trigger for ampC induction.

[5] = target: T4, PBP3; test: Bocillin-FL competition in whole cells; assay type: cell-based; parameters: gene ftsI; native full-length protein in intact P. aeruginosa PAO1 cells, Bocillin-FL labelled; conditions: intact PAO1 cells, 30 min incubation, covalent
[6] = target: T5, AmpC (Pseudomonas aeruginosa, UniProt P24735); test: inhibition of nitrocefin / cefalotin hydrolysis in crude extract; assay type: biochemical; conditions: crude extract of PAOΔdacBdacCpbpG; 500 mg/L in Results (Methods: 50 and 100 μM); both substrates
T5 construct: native chromosomal enzyme in crude extract of constitutive AmpC-overproducing triple LMW-PBP knockout

[7] = read-out: Drug mg/L^a / MEM / FOX
[8] = read-out: Drug mg/L^a / PIP / CLV
[9] = read-out: Drug mg/L^a / TIC / REL
[10] = read-out: Drug mg/L^a / MEC / SUL
[11] = read-out: Drug mg/L^a / DOR / AVI
[12] = read-out: Drug mg/L^a / ETP / CAZ
[13] = read-out: Drug mg/L^a / CAR / TZB

T4 sequence (G3XD46 whole entry): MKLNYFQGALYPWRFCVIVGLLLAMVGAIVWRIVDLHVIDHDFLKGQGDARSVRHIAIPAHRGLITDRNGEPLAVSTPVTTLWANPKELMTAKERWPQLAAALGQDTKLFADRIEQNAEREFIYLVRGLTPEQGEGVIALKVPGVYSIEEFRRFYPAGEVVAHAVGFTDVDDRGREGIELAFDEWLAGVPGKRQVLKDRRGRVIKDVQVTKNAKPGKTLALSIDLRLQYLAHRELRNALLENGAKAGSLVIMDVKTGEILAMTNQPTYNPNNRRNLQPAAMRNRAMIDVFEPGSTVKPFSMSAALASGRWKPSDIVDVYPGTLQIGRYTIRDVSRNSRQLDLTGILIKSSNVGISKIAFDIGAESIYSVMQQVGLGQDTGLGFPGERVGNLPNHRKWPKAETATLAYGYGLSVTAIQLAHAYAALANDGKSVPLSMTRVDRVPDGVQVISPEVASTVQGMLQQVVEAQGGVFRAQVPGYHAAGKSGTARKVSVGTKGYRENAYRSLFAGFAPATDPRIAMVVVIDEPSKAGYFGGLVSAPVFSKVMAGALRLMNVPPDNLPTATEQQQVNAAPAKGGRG
T2 sequence (Q9HZG1 entry or part of it): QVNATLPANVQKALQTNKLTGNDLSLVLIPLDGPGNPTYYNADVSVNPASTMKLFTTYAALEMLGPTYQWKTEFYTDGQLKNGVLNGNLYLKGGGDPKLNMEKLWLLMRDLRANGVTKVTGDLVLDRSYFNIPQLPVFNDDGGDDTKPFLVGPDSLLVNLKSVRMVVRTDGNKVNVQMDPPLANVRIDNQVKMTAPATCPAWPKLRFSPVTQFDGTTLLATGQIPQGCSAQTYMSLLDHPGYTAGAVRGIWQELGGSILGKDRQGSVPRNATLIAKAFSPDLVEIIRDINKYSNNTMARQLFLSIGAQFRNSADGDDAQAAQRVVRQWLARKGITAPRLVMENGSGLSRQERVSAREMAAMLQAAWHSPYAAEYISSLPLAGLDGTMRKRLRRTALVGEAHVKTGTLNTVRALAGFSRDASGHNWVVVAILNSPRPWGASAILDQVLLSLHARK
T1 sequence (G3XD74 entry or part of it): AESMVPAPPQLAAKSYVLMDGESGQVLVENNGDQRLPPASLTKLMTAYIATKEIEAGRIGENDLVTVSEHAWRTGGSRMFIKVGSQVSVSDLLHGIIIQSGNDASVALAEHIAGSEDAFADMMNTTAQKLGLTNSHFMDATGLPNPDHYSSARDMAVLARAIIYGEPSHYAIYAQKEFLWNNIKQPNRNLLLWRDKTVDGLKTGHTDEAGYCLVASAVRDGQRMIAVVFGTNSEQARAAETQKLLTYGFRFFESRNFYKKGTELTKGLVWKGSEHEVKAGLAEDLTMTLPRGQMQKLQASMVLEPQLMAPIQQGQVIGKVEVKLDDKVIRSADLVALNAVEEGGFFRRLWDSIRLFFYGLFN
T5 sequence (P24735 27-397): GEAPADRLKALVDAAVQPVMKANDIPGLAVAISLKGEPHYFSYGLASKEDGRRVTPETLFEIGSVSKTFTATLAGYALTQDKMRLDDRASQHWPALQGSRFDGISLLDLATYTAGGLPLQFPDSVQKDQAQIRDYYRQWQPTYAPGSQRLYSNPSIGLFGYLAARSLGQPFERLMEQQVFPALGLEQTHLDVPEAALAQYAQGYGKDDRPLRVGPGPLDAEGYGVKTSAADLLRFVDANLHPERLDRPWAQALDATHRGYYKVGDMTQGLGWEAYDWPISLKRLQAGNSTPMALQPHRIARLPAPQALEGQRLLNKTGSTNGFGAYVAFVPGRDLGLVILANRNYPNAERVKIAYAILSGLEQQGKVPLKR

SMILES: CO[C@@]1(NC(=O)Cc2cccs2)C(=O)N2C(C(=O)O)=C(COC(N)=O)CS[C@@H]21 [cefoxitin]
- IC50 [1, 7]: 12.4 µM
- IC50 [2, 7]: 47.7 µM
- IC50 [3, 7]: 4750 µM
- FOX IC50 ([4]; lysed PAO1, covalent): 10.7 µg/mL
- IC50 [5, 7]: 5390 µM

SMILES: CCN1CCN(C(=O)N[C@@H](C(=O)N[C@@H]2C(=O)N3[C@@H]2SC(C)(C)[C@@H]3C(=O)O)c2ccccc2)C(=O)C1=O [piperacillin]
- IC50 [1, 8]: 6.09 µM
- IC50 [2, 8]: 3.23 µM
- IC50 [3, 8]: 4.21 µM
- IC50 [4]: 0.0966 µM
- IC50 [5, 8]: 1.7 µM

SMILES: CC1(C)S[C@@H]2[C@H](NC(=O)[C@H](C(=O)O)c3ccsc3)C(=O)N2[C@H]1C(=O)O [ticarcillin]
- IC50 [1, 9]: 682 µM
- IC50 [3, 9]: 51.5 µM
- IC50 [5, 9]: 6.4 µM

SMILES: CC1(C)S[C@@H]2[C@H](N=CN3CCCCCC3)C(=O)N2[C@H]1C(=O)O [mecillinam]
- IC50 [1, 10]: 1300 µM
- IC50 [2, 10]: 648 µM
- IC50 [3, 10]: 870 µM

SMILES: C[C@@H](O)[C@H]1C(=O)N2C(C(=O)O)=C(S[C@@H]3CN[C@H](CNS(N)(=O)=O)C3)[C@H](C)[C@H]12 [doripenem]
- IC50 [1, 11]: 2.14 µM
- IC50 [2, 7]: 0.0476 µM
- IC50 [3, 11]: 0.69 µM
- IC50 [4]: 0.309 µM
- IC50 [5, 11]: 1.05 µM

SMILES: C[C@@H](O)[C@H]1C(=O)N2C(C(=O)O)=C(SCCN=CN)C[C@H]12 [imipenem]
- IC50 ([1]; read-out: IPM / FEP): 0.2 µM
- IC50 ([2]; read-out: IPM / FEP): 0.0334 µM
- IC50 ([3]; read-out: IPM / FEP): 0.2 µM

SMILES: CC(C)(O/N=C(\C(=O)N[C@@H]1C(=O)N2C(C(=O)[O-])=C(C[n+]3ccccc3)CS[C@H]12)c1csc(N)n1)C(=O)O [ceftazidime]
- IC50 [2, 12]: 0.585 µM
- IC50 [3, 12]: 2.73 µM
- IC50 [4]: 0.11 µM
- IC50 [5, 12]: 0.567 µM

SMILES: O=C(NC1CCNCC1)[C@@H]1CC[C@@H]2CN1C(=O)N2OS(=O)(=O)O [relebactam]
- IC50 [1, 9]: 81.7 µM
- IC50 [2, 9]: 24.4 µM
- IC50 [3, 9]: 17.1 µM
- IC50 [5, 9]: 12.2 µM

SMILES: C[C@@H](O)[C@H]1C(=O)N2C(C(=O)O)=C(S[C@@H]3CN[C@H](C(=O)Nc4cccc(C(=O)O)c4)C3)[C@H](C)[C@H]12 [ertapenem]
- IC50 [1, 12]: 1.7 µM
- IC50 [2, 12]: 0.105 µM
- IC50 [3, 12]: 0.673 µM
- IC50 [4]: 0.4 µM
- IC50 [5, 12]: 1.14 µM

SMILES: C[C@H]1[C@H](NC(=O)/C(=N\OC(C)(C)C(=O)O)c2csc(N)n2)C(=O)N1S(=O)(=O)O [aztreonam]
- IC50 ([1]; read-out: Drug mg/L^a / ATM): 10.4 µM
- IC50 ([2]; read-out: Drug mg/L^a / ATM): 3.1 µM
- IC50 ([3]; read-out: Drug mg/L^a / ATM): 17 µM
- IC50 [4]: 0.184 µM
- IC50 ([5]; read-out: Drug mg/L^a / ATM): 1.75 µM

SMILES: CC1(C)[C@H](C(=O)O)N2C(=O)C[C@H]2S1(=O)=O [sulbactam]
- IC50 [1, 10]: 8.96 µM
- IC50 [2, 10]: 12.4 µM
- IC50 [3, 10]: 19.2 µM
- IC50 [5, 10]: 9.09 µM

SMILES: C[C@@H](O)[C@H]1C(=O)N2C(C(=O)O)=C(S[C@@H]3CN[C@H](C(=O)N(C)C)C3)[C@H](C)[C@H]12 [meropenem]
- IC50 [1, 7]: 3.65 µM
- IC50 [2, 7]: 0.0522 µM
- IC50 [3, 7]: 3.99 µM

SMILES: Cc1onc(-c2ccccc2Cl)c1C(=O)N[C@@H]1C(=O)N2[C@@H]1SC(C)(C)[C@@H]2C(=O)O [cloxacillin]
- % reduction in hydrolysis rate at 500 mg/L [6]: > 95%

SMILES: O=C(O)[C@H]1/C(=C/CO)O[C@@H]2CC(=O)N21 [clavulanic acid]
- IC50 [1, 8]: 18.1 µM
- IC50 [2, 8]: 21.8 µM
- IC50 [3, 8]: 56.2 µM
- IC50 [5, 8]: 30.5 µM

SMILES: CC1(C)S[C@@H]2[C@H](NC(=O)C(C(=O)O)c3ccccc3)C(=O)N2[C@H]1C(=O)O (some centres unmarked) [carbenicillin]
- IC50 [1, 13]: 129 µM
- IC50 [3, 13]: 85.4 µM
- IC50 [5, 13]: 9.01 µM

SMILES: CO/N=C(\C(=O)N[C@@H]1C(=O)N2C(C(=O)[O-])=C(C[N+]3(C)CCCC3)CS[C@H]12)c1csc(N)n1 [cefepime]
- IC50 ([2]; read-out: IPM / FEP): 0.52 µM
- IC50 ([3]; read-out: IPM / FEP): 2 µM
- IC50 ([5]; read-out: IPM / FEP): 0.437 µM

SMILES: NC(=O)[C@@H]1CC[C@@H]2CN1C(=O)N2OS(=O)(=O)O [avibactam]
- IC50 [1, 11]: 12.4 µM
- IC50 [2, 11]: 9.01 µM
- IC50 [3, 11]: 23.7 µM
- IC50 [5, 11]: 38.8 µM

SMILES: C[C@]1(Cn2ccnn2)[C@H](C(=O)O)N2C(=O)C[C@H]2S1(=O)=O [tazobactam]
- IC50 [1, 13]: 15.9 µM
- IC50 [2, 13]: 15.9 µM
- IC50 [3, 13]: 11.9 µM
- IC50 [5, 13]: 13.4 µM

From PMC12802951, “Unravelling the triad of penicillin-binding proteins, β-lactamase activity, and mRNA dynamics in Pseudomonas aeruginosa AmpC induction” (Journal of Antimicrobial Chemotherapy, 2025)
